From US6664297B1, “Methods for inhibition and dissolution of amyloidoses by administration of compositions comprising 2,4-dinitrophenol” (priority 2000, dated 2003)
Structures can show the parent of a compound that is named as a salt.

What was measured:
[1] = test system: hippocampal neurons; assay: Cell viability of hippocampal neuron cultures by trypan blue exclusion; conditions: no Aβ
Procedure: Hippocampi from 18-day-old rat embryos were dissected and cultured as previously described by Martins et al., Nat. Med., 3, 1376-82, 1997) with minor modifications. Cells were plated on glass coverslips previously coated with 1.5 μg/ml polyornithine (Sigma) in Basal Eagle's Medium (Gibco) enriched with 10% fetal calf serum (Hyclone) for the first 24 hours of culture. After that, proliferation of nonneuronal cells was inhibited with 10 μM arabinosyl cytoside and the serum concentration was lowered to 2%. Aβ1-42 (44 μM), in the absence or in the presence of nitrophenols, was added after 48 hours of culture and kept for three days. Control cultures consisting of neurons cultured in growth medium alone or in the presence of residual TFE (0.5% v/v) were also prepared. Daily observations were carried out during this period.
Cell viability in cultures incubated with or without Aβ (as described above) was assessed by trypan blue exclusion. Immediately before counting, the medium was removed, cultures were washed once with PBS and incubated for 5 min with 0.4% trypan blue. Randomly chosen fields were counted in a Zeiss Televal microscope. Percentages of live neurons are expressed relative to the total number of neurons observed in each field. Five independent fields were counted for each experimental condition (which were carried out in triplicate).

[2] = target: T1, amyloid deposits (Homo sapiens, UniProt P05067); assay: Rat model of cerebral Aβ deposition (intrahippocampal co-injection); format: in vivo; conditions: 3 nmol Aβ1-42 co-injected with DNP 0.76 mM into hippocampus; 8 days; n=4, p=0.05
T1 construct: purchased Bachem Inc; host or cells: synthetic peptide
Procedure: To evaluate the effects of nitrophenols as inhibitors of amyloid deposition in vivo, we used a rat model of cerebral Aβ deposition. Aβ was injected alone or in the presence of DNP into the left or right hippocampi of rats, respectively, and the areas occupied by amyloid deposits in either side were measured on consecutive sections stained with thioflavin S. The experimental protocol used was designed to minimize the influence of individual variability in animal response by injecting Aβ into one hemisphere and Aβ plus DNP into the other hemisphere for each individual rat.
Male adult Wistar rats (280-320 g) were anesthetized with chloropent (3.3 ml/kg) and placed into a stereotaxic frame. The left hippocampus (standard coordinates: A 5.0; L 2.0; H 6.8) was injected with 3 nmol of Aβ1-42 (from a previously diluted stock in 55 μl of PBS containing 9% DMSO). A volume of 1.5 μl was administered at a constant flow rate during a time period of 15 minutes. […] Images were analyzed with ScionImage to measure the areas occupied by amyloid aggregates.
FIG. 5A is a schematic diagram of the injection protocol and representative hippocampal sections visualized by Thioflavine-S staining or autofluorescence, as indicated. FIGS. 5B-5E show quantitative analysis of the area of amyloid deposits in consecutive hippocampal sections as described above. […]

[3] = target: T2, Aβ1-42 (Homo sapiens, UniProt P05067); assay: Transmission electron microscopy of Aβ1-42 fibril formation; format: biochemical
T2 construct: purchased Bachem Inc; host or cells: synthetic peptide
Procedure: Aggregated samples were also examined by transmission electron microscopy. In this case, Aβ (22 μM) was incubated in PBS in the absence or in the presence of nitrophenols, as indicated. After 48 hours, samples were stained with 1% uranyl acetate.
Confirmation that the light scattering intensity measurements were in fact related to the formation of amyloid fibrilar aggregates was made by transmission electron microscopy analysis using uranyl acetate staining.
An Aβ1-42 sample incubated for 2 days in the presence of 20 μM DNP is shown in FIG. 2C (Magnification: 52,500×).

[4] = test system: hippocampal neurons; assay: Aβ neurotoxicity in hippocampal neuron cultures, morphology by anti-Tau immunostaining; format: cell-based, rat; conditions: Aβ1-42 44 μM, 72 hours
Procedure: In order to evaluate the efficacy of the phenol derivatives, control assays were also performed in the absence of the aromatic or heteroaromatic compounds described herein.
Med., 3, 1376-82, 1997) with minor modifications. […] Daily observations were carried out during this period.
Aβ1-42 (44 μM) was added to the culture medium containing neurons and incubation was continued for 72 hours. […] Furthermore, the remaining cell bodies of Aβ-treated neurons were attached to the plate, but their neurites were retracted and thin, and sometimes detached from the plate.

[5] = target: T2, Aβ1-42; assay: Disaggregation of aggregated Aβ1-42 followed by 90° light scattering; format: biochemical; conditions: for IC50: aggregated Aβ1-42, light scattering measured 1.5 hour after addition, 23° C., read-out: IC50 for disaggregation of Aβ; for inhibition at 200 µM: read-out: % decrease in light scattering
Procedure: (§1) Aβ peptides of different chain-lengths (Bachem Inc., Torrance, Calif., USA) were freshly dissolved from lyophilized powder in 50% (v/v) trifluoroethanol (TFE) in PBS. Aggregation was triggered by dilution of aliquots from the stock solution into PBS (resulting in ≦0.5% (v/v) residual TFE), and was followed as a function of time by light scattering measurements. Light scattering was measured in sealed cuvettes at 500 nm on ISS Inc. (Champaign, Ill., USA) PC1 or Hitachi F-4500 spectrofluorometers. […] Low temperature experiments were performed using a thermostated cell holder and flushing the cell compartment with N2 to avoid condensation. All results shown represent equilibrium light scattering values obtained for each sample.
Concentrated peptide stock solutions were prepared in 50% (v/v) trifluoroethanol. Aggregation was triggered by dilution in phosphate-buffered saline (PBS) and was followed by means of light-scattering measurements (FIGS. 1A, 1B, 1C), thioflavin T fluorescence (not shown) and electron microscopy (FIG. 2). Equilibrium light scattering values were used as an index of the extent of aggregation under different experimental conditions.
One class of compounds we tested were the nitrophenols. The disaggregation of Aβ1-42 by nitrophenols was determined. 3-nitrophenol (NP; O) or 2,4-dinitrophenol (DNP; □) were added to aggregated samples prepared as described above. Light scattering intensities were measured 1.5 hour after addition of the drugs. Symbols represent averages±S.D. from 3 experiments.
Further results for a series of aromatic compounds are shown in Table 1, at aromatic compound concentrations of 200 micromolar.

[6] = target: T2, Aβ1-42; assay: Disaggregation of fibrillar Aβ1-42 by GdnHCl, light scattering; format: biochemical; conditions: Aβ1-42 10 μM, 1 hour incubation
Procedure: as §1
(§2) Stabilities of the fibrillar amyloid aggregates of peptides Aβ1-28, Aβ1-42 and Aβ1-43 in the presence of guanidine hydrochloride were compared. Measurements of the reduction in light scattering intensity as a function of the concentration of guanidine hydrochloride were used as an index of amyloid aggregate dissolution. Samples were incubated for 1 hour in the presence of the indicated concentrations of GdnHCl prior to measurements. Different symbols correspond to Aβ1-28 (□), Aβ1-42 (O) and Aβ1-43 (Δ), and represent averages±S.D. from 3-5 determinations.

[7] = target: T3, Aβ1-28 (Homo sapiens, UniProt P05067); assay: Disaggregation of fibrillar Aβ1-28 by GdnHCl, light scattering; format: biochemical; conditions: Aβ1-28 10 μM, 1 hour incubation
T3 construct: purchased Bachem Inc; host or cells: synthetic peptide
Procedure: as §1, §2

[8] = aromatic compound concentration 200 micromolar

T2 sequence (P05067 672-713): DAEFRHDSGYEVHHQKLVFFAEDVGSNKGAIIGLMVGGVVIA
T1 sequence (P05067 672-713): as above
T3 sequence (P05067 672-699): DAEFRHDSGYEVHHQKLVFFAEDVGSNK

O=[N+]([O-])c1ccc(O)c([N+](=O)[O-])c1 [2,4-dinitrophenol]
effect of compound alone on survival of neurons in culture ([1]; 20 μM DNP): no effects
reduction in the volume of amyloid deposits relative to Aβ injected alone [2]: 86±17%
fibrils seen by electron microscopy ([3]; Aβ1-42 22 μM incubated 2 days in PBS with 20 μM DNP): completely devoid of fibrils
protection against Aβ neurotoxicity (neuron morphology) ([4]; 20 μM DNP): marked protection against neurotoxicity
light scattering from Aβ suspensions (disaggregation of fibrillar amyloid) ([5]; DNP 20 μM): completely abolished light scattering
IC50 [5]: ~7 µM
inhibition at 200 µM [5, 8]: 100%

Nc1cc(Cl)ccc1O [2-amino-4-chlorophenol]
inhibition at 200 µM [5, 8]: 12%

Nc1cc([N+](=O)[O-])ccc1O [2-amino-4-nitrophenol]
inhibition at 200 µM [5, 8]: 92%

Nc1ccc([N+](=O)[O-])cc1O [2-amino-5-nitrophenol]
inhibition at 200 µM [5, 8]: 44%

Cc1ccc(O)cc1C [3,4-dimethyl-phenol]
inhibition at 200 µM [5, 8]: 40%

Nc1cccc(O)c1 [3-amino-phenol]
inhibition at 200 µM [5, 8]: 18%

O=[N+]([O-])c1cccc(O)c1 [3-nitrophenol]
effect of compound alone on survival of neurons in culture ([1]; 100 μM NP): no effects
fibrils seen by electron microscopy ([3]; Aβ1-42 22 μM incubated 2 days in PBS with 100 μM NP): completely devoid of fibrils
protection against Aβ neurotoxicity (neuron morphology) ([4]; 100 μM NP): marked protection against neurotoxicity
IC50 [5]: ~80 µM
inhibition at 200 µM [5, 8]: 60%

COc1ccc(N)cc1 [4-amino-anisole]
inhibition at 200 µM [5, 8]: 48%

O=[N+]([O-])c1ccc(Br)cc1 [4-bromo-nitrobenzene]
% decrease in light scattering [5, 8]: 37%

Oc1ccc(Br)cc1 [4-bromo-phenol]
inhibition at 200 µM [5, 8]: 25%

Oc1ccc(Cl)cc1 [4-chloro-phenol]
inhibition at 200 µM [5, 8]: 20%

CCc1ccc(O)cc1 [4-ethyl-phenol]
inhibition at 200 µM [5, 8]: 0%

COc1ccc([N+](=O)[O-])cc1 [4-nitro-anisole]
inhibition at 200 µM [5, 8]: 49%

N=C(N)N [GdnHCl, guanidine hydrochloride]
GdnHCl concentration for full disaggregation [6]: 5 to 6 M
GdnHCl concentration for complete disaggregation [7]: 3 M
